# Experimental data as given in ChEMBL document CHEMBL1201862, “PubChem BioAssay data set” (2004).
# Activity calls are given as the source filed them.
# Legend:
# [1] = target: T1, Sentrin-specific protease 6 (Homo sapiens, UniProt Q9GZR1); type: functional;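 further: Luminescence-based dose-response confirmatory assay of SENP6 inhibition, following up an ultra-high-throughput screen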
# T1 sequence (Q9GZR1 whole entry): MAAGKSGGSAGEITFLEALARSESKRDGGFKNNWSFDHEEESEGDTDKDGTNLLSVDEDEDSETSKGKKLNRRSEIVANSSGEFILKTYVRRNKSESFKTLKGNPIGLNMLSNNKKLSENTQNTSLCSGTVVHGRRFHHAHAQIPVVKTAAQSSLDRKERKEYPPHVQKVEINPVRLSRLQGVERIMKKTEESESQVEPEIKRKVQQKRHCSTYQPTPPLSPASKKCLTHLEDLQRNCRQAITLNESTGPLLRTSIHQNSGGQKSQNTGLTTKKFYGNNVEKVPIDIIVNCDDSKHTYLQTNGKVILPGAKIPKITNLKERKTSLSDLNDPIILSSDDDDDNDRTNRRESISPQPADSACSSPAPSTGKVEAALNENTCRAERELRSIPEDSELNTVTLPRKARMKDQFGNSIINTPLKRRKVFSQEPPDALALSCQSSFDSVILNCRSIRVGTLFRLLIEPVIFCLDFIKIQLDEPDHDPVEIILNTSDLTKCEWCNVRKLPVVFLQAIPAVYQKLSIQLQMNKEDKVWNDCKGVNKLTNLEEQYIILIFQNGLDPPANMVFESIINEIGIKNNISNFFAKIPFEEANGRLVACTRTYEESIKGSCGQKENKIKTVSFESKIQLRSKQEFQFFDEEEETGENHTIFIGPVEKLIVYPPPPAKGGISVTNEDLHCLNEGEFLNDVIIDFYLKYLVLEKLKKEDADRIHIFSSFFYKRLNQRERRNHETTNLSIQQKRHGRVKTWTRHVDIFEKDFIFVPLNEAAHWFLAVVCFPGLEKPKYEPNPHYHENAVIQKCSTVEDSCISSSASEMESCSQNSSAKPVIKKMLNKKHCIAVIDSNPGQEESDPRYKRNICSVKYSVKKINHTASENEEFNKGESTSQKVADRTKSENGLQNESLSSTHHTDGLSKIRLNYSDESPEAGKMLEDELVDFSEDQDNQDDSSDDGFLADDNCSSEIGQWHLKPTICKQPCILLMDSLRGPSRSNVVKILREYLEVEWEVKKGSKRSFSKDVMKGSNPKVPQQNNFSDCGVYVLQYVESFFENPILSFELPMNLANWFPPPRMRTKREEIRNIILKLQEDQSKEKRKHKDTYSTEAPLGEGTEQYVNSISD
# [2] = target: T2, Sentrin-specific protease 8 (Homo sapiens, UniProt Q96LD8); type: functional;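 further: luminescence read-out of SENP8 inhibition, dose-response confirmation following an ultra-high-throughput screen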
# T2 sequence (Q96LD8 whole entry): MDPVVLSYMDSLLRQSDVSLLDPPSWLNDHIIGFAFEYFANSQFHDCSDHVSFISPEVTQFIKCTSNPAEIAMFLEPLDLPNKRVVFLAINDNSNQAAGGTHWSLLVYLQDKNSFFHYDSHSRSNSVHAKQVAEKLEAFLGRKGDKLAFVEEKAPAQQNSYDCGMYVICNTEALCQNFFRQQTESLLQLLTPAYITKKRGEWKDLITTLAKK
# Caspase-3 = target: T3, Caspase-3 (Homo sapiens, UniProt P42574); type: functional;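 further: Dose-response selectivity test against caspase-3 for candidate inhibitors of sentrin-specific proteases (SENPs)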
# T3 sequence (P42574 whole entry): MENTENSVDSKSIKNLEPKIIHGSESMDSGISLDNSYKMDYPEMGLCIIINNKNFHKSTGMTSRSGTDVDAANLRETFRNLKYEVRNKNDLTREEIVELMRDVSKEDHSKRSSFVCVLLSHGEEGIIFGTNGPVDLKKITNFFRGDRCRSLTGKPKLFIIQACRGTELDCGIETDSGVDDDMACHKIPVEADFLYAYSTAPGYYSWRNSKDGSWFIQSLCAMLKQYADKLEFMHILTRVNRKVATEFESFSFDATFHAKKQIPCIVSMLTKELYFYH
# [3] = target: T4, Sentrin-specific protease 7 (Homo sapiens, UniProt Q9BQF6); type: functional;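 further: Luminescence-based dose-response confirmation of ultra-high-throughput screening hits, measuring inhibition of SENP7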
# T4 sequence (Q9BQF6 whole entry): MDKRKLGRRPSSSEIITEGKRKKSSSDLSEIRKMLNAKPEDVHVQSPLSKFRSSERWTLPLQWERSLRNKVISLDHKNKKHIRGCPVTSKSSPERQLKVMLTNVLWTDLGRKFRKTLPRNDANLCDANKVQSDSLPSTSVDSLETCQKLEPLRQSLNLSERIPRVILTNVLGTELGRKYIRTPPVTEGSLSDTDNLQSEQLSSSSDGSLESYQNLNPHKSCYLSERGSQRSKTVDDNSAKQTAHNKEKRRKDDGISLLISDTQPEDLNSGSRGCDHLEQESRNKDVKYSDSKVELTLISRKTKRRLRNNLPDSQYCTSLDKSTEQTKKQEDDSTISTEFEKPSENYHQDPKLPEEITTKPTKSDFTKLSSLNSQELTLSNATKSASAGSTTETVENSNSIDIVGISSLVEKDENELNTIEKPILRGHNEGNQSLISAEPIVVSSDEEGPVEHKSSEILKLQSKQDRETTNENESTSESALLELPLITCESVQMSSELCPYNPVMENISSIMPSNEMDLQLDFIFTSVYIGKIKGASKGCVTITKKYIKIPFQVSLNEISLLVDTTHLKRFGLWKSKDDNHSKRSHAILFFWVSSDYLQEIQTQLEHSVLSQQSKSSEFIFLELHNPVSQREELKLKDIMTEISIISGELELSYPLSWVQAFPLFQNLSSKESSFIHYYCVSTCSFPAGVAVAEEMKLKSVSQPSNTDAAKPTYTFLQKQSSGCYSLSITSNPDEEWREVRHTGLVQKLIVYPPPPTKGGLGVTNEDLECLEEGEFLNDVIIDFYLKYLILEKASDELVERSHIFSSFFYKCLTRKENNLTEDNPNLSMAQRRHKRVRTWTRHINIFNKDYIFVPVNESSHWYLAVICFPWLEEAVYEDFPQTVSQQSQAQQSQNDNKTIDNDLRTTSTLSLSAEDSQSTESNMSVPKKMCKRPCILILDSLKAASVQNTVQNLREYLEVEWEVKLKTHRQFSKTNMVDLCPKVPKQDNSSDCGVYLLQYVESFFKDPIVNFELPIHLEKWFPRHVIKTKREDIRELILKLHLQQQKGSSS
# fMet-Leu-Phe receptor = target: T5, fMet-Leu-Phe receptor (Homo sapiens, UniProt P21462); assay: FPR ligands, dose response (AID 519); type: functional
# T5 sequence (P21462 whole entry): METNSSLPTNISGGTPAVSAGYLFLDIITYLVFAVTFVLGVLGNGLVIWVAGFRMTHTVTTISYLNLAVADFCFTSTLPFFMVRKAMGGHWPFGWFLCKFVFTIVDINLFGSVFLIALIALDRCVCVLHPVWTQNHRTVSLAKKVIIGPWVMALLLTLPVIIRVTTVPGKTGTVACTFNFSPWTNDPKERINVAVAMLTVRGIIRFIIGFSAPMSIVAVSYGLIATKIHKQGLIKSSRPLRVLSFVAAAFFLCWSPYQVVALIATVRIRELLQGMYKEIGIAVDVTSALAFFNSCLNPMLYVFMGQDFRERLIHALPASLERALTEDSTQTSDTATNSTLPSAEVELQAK
# Fatty acid synthase [4] = target: T6, Fatty acid synthase (Homo sapiens, UniProt P49327); assay: FAS thioesterase domain inhibitors, dose response, biochemical, endpoint fluorescence intensity, uHTS hits (AID 624327); type: functional;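 further: fluorescence from hydrolysis of an O-methyl fluorescein acyl ester substrate by the enzyme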
# T6 sequence (P49327 whole entry, the tested form may be a part): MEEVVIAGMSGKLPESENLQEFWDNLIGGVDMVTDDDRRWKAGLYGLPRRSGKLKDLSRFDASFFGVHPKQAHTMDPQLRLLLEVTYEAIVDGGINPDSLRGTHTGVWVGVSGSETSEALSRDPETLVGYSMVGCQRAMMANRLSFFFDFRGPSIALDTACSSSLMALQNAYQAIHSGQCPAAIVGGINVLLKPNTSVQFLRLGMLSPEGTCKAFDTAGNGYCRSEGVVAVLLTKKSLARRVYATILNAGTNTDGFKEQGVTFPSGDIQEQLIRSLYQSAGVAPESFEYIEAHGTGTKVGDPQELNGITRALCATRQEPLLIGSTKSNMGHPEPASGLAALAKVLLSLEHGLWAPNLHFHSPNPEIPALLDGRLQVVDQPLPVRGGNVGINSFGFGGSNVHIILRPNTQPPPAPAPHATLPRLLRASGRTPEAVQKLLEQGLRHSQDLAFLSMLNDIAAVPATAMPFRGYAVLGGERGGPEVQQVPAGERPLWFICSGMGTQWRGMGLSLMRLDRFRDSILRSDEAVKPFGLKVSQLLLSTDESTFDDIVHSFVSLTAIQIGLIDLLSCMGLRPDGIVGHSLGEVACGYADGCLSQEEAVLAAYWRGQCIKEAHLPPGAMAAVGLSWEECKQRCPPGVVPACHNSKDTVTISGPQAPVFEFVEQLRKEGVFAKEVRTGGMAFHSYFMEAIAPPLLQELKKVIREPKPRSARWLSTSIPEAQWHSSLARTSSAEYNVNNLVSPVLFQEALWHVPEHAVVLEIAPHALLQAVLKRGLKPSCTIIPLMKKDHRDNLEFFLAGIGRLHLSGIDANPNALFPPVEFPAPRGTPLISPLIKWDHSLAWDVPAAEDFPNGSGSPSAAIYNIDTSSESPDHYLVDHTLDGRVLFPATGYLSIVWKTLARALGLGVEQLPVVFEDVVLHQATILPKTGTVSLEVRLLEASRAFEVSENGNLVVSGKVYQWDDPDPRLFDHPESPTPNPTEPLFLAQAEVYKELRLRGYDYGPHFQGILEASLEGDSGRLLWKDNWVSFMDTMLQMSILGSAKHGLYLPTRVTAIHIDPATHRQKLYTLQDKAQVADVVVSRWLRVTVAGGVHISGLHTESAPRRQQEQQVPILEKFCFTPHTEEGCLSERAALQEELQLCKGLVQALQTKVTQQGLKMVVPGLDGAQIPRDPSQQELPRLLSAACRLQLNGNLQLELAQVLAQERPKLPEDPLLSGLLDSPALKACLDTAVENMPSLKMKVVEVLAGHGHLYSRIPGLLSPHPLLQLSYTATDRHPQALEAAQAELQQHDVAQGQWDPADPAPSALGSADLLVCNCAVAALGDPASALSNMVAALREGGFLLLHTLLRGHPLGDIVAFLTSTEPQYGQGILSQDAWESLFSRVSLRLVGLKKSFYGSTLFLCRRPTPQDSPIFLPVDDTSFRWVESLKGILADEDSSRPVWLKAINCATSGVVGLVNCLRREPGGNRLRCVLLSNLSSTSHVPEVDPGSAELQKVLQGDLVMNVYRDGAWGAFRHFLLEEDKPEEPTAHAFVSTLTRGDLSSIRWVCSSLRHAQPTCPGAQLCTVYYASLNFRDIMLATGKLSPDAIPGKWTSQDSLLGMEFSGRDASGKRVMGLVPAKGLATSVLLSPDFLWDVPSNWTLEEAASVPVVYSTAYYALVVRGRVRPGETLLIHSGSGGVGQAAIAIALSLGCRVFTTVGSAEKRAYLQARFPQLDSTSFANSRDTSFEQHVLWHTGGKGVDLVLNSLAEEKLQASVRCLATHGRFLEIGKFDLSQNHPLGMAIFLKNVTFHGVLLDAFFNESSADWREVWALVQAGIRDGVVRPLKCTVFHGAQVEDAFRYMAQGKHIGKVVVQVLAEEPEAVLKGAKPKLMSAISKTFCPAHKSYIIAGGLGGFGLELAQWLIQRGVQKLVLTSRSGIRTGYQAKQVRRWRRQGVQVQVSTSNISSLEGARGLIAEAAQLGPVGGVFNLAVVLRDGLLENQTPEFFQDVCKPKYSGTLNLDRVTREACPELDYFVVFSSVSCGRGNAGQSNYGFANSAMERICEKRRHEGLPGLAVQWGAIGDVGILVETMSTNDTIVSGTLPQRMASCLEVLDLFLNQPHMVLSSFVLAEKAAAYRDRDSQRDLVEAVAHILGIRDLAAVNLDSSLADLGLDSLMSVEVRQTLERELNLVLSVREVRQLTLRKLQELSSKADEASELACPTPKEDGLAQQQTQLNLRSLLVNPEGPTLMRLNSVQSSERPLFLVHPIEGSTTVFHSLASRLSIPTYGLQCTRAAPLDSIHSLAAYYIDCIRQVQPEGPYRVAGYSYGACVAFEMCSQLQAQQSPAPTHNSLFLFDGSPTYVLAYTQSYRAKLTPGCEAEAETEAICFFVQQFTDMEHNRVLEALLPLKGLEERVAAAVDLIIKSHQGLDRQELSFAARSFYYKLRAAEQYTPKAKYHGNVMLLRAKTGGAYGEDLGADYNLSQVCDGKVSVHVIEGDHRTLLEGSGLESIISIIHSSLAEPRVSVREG
# Fatty acid synthase [5] = target: T6, Fatty acid synthase; assay: FAS thioesterase domain inhibitors, dose response, biochemical, kinetic fluorescence intensity (AID 624326); type: functional;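 further: rate of fluorescence rise from hydrolysis of a fluorogenic O-methyl fluorescein ester substrate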
# BJ [6] = assay: cytotoxicity toward Ras-transformed BJeLR fibroblasts, dose response, cell-based, alamar blue fluorescence, cherrypicked samples (AID 2631); type: functional; conditions: Homo sapiens;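 further: confirmatory dose-response assay in RAS-dependent BJ fibroblasts engineered with TERT, LT and ST, with cytotoxicity read by fluorescence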
# BJ [7] = assay: cytotoxicity toward BJ-TERT fibroblasts, dose response, cell-based, RAS-independent, luminescence (AID 1933); type: functional; conditions: Homo sapiens
# BJ [8] = assay: cytotoxicity toward BJ-TERT-LT-ST fibroblasts, dose response, cell-based, RAS-independent, luminescence (AID 1935); type: functional; conditions: Homo sapiens;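 further: BJ fibroblasts immortalized with TERT plus LT and ST oncogenes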
# BJ [9] = assay: cells; type: functional, cell-based; conditions: Homo sapiens
# [10] = cytotoxicity toward DRD oncogenic fibroblasts, dose response, cell-based, non-viral oncogenic, luminescence (AID 1934); type: functional; conditions: Homo sapiens
# Vero = assay: cells; type: functional; conditions: Chlorocebus sabaeus
# [11] = inhibitors of intracellular T. cruzi replication, confirmation, NIH3T3 host cells, beta-gal luminescence (AID 2044); type: functional, cell-based;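 further: intracellular parasites grown in NIH/3T3 mouse fibroblasts as host cells; luminescent beta-galactosidase reporter signal from transgenic T. cruzi replicating inside host cells; inhibitors lower the luminescence signal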
# [12] = cytotoxicity toward NIH3T3 fibroblasts, dose response, counter-screen, cell-based, ATP luminescence, mouse fibroblasts (AID 2010); type: functional;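 further: cells exposed to compound for about 90 hours before reading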
# [13] = target: T7, DNA repair protein RAD52 homolog (Homo sapiens, UniProt P43351); type: functional, biochemical
# T7 sequence (P43351 whole entry): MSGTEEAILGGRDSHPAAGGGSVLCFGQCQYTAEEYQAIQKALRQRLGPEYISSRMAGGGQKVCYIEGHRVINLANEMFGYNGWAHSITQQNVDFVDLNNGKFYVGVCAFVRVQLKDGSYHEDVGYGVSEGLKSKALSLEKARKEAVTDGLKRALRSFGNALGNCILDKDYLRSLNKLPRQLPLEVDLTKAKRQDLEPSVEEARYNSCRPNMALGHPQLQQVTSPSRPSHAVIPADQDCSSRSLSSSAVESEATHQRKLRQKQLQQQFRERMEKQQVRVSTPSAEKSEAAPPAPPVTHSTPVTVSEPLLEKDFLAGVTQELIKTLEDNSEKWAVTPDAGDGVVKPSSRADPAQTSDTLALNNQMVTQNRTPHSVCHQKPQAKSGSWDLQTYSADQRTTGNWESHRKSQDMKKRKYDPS
# [14] = target: T8, RNA-binding protein pos-1 (Caenorhabditis elegans, UniProt G5EF15); assay: inhibitors of POS-1/mex-3 RNA binding, dose response, biochemical, fluorescence polarization (AID 1964);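 further: purified POS-1 fused to maltose binding protein made in E. coli; potency of compounds blocking POS-1 binding to fluorescent RNA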
# T8 sequence (G5EF15 whole entry): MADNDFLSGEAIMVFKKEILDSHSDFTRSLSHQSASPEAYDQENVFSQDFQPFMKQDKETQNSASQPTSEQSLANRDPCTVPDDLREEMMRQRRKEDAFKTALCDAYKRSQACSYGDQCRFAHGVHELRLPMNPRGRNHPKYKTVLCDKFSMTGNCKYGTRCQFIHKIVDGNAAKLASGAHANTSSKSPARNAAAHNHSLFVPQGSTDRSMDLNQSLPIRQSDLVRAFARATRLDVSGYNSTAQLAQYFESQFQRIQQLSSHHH
# [15] = target: T9, Zinc finger protein mex-5 (Caenorhabditis elegans, UniProt Q9XUB2); assay: MEX-5/TCR-2 RNA interaction inhibitors, dose response, biochemical, C. elegans, fluorescence polarization (AID 1960)
# T9 sequence (Q9XUB2 whole entry): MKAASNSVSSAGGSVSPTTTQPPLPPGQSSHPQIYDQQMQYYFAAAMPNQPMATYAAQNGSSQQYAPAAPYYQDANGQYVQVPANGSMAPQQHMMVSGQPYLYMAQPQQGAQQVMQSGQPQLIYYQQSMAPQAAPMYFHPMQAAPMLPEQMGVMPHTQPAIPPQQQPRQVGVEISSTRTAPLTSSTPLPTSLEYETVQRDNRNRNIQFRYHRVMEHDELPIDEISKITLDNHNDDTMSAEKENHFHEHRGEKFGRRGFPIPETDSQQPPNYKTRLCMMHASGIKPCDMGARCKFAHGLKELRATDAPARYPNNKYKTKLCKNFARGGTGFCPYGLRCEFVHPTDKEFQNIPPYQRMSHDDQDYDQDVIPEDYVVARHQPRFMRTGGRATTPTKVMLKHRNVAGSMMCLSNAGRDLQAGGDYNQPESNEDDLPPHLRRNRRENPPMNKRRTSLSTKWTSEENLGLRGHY
smiles,measurement,setting,value
c1ccc(Nc2nnc(-c3cccc4ccccc34)o2)cc1,IC50,[1],> 100 µM (inactive)
same,IC50,[2],> 100 µM (inactive)
same,IC50,Caspase-3,> 100 µM (inactive)
same,IC50,[3],> 100 µM (inactive)
COc1ccccc1-n1c(CNC(=O)c2ccco2)nnc1SCC(=O)Nc1ccc(F)cc1,Ki,fMet-Leu-Phe receptor,63.3 µM (inactive)
COc1ccc(-c2nnc(SCc3ccccc3F)o2)cc1,IC50,[1],12 µM (active)
same,IC50,[2],12.2 µM (active)
same,IC50,Caspase-3,16.1 µM (active)
same,IC50,[3],4.23 µM (active)
O=C(Nc1cccc(F)c1)c1ccc(-c2ccccc2Cl)o1,IC50,[1],42 µM (active)
same,IC50,[2],53.7 µM (active)
same,IC50,Caspase-3,47 µM (active)
same,IC50,[3],7.07 µM (active)
COC(=O)c1ccc(CSc2nc(C(F)F)cc(C)c2C#N)o1,IC50,Fatty acid synthase [4],17.2 µM (active)
same,IC50,Fatty acid synthase [5],18.6 µM (active)
O=[N+]([O-])c1ccc(S(=O)(=O)NN=Cc2ccc3c(c2)OCO3)cc1,IC50,Fatty acid synthase [4],5.4 µM (active)
same,IC50,Fatty acid synthase [5],5.8 µM (active)
O=C(/C=C/c1ccc(F)cc1)NNC(=O)CCN1CCN(Cc2ccccc2)CC1,EC50,BJ [6],> 133 µM (inactive)
same,EC50,BJ [7],19.1 µM (active)
same,EC50,BJ [8],2.15 µM (active)
same,EC50,BJ [9],3.53 µM (active)
same,EC50,[10],2.92 µM (active)
CCOC(=O)CC(NC(=O)c1cc2ccccc2oc1=O)c1cccc([N+](=O)[O-])c1 (stereo not drawn),IC50,Fatty acid synthase [4],16.7 µM (active)
same,IC50,Fatty acid synthase [5],15.5 µM (active)
CCCCn1c(NC(C)=O)c(C#N)c2nc3ccccc3nc21,Ki,fMet-Leu-Phe receptor,45.7 µM (inactive)
COc1ccc([N+](=O)[O-])cc1NC(=O)CCC(=O)c1cccs1,IC50,Fatty acid synthase [4],9.16 µM (active)
same,IC50,Fatty acid synthase [5],9.62 µM (active)
CC1=C(C(=O)OCC(Br)(Br)Br)C(c2cccc([N+](=O)[O-])c2)NC(=O)N1CCCC(=O)O (stereo not drawn),IC50,Fatty acid synthase [4],7.69 µM (active)
same,IC50,Fatty acid synthase [5],5.05 µM (active)
Fc1ccc(-c2nnc3ccc(N4CCCC4)nn23)cc1,Ki,fMet-Leu-Phe receptor,> 66.7 µM (inactive)
Brc1nc(-c2ccccc2)nc(-c2ccccc2)c1Br,EC50,BJ [6],4.95 µM (active)
same,EC50,BJ [7],8.57 µM (inconclusive)
same,EC50,BJ [8],7.93 µM (inconclusive)
same,EC50,BJ [9],14 µM (active)
same,EC50,[10],10.2 µM (active)
Cc1cc2oc(C(=O)NC3CCS(=O)(=O)C3)c(C)c2cc1C (stereo not drawn),Ki,fMet-Leu-Phe receptor,> 66.7 µM (inactive)
Cc1cc(N2CCCC2)nc2ccc(NC(S)=NCCCN3CCC(C)CC3)cc12,CC50,Vero,> 25 µM (active)
same,EC50,[11],2.03 µM (active)
same,EC50,[12],14.2 µM (active)
same,AC50,[13],2.27 µM (active)
CC1CCN(C(=O)CCN2C(=O)/C(=C/c3cccs3)SC2=S)CC1,EC50,[14],> 300 µM (not active)
same,CC50,Vero,17.3 µM (active)
same,EC50,[15],> 300 µM (not active)
